The record followed here is US10414778B2, “Methods for treatment of resistant cancer” (New Mexico Tech University Research Park Corporation, priority 2016, dated 2019).

As usually defined, the GI50 is the concentration that inhibits growth by half.

Assay [1] relates to MES-SA cells. The experiment in a line: MTT growth inhibition, MES-SA uterine sarcoma. It counts as cell-based. The following applies: Homo sapiens, MES-SA, MTT. As to the method:
(§1) Human cancer cell lines were obtained from the American Type Culture Collection (ATCC, Manassas, Va., USA), the European Collection of Cell Culture (ECACC, Salisbury, UK), and the Deutsche Sammlung von Mikroorganismen und Zellkulturen (DSMZ, Braunschweig, Germany). Human cervical adenocarcinoma HeLa cells were cultured in DMEM supplemented with 10% fetal bovine serum (FBS). Human mammary carcinoma MCF-7 cells were cultured in RPMI supplemented with 10% FBS. The U87 cells (ATCC HTB-14) were cultured in DMEM culture medium, while the A549 cells (DSMZ ACC107) were cultured in RPMI culture medium supplemented with 10% heat-inactivated FBS. The GBM Hs683 (ATCC HTB-138) and the T98G (ATCC CRL-1690) cell lines were cultivated in DMEM supplemented with 10% FBS. The GBM U251 cells (ECACC code 09063001) were cultured in 10% MEM. The human uterine sarcoma MES-SA and MES-SA/Dx5 cells were cultured in RPMI-1640 medium supplemented with 10% FBS with MES SA/Dx5 maintained in the presence of 500 nM Doxorubicin (Sigma™). The U373 glioblastoma cells (ECACC 08061901) were cultured in RPMI culture medium supplemented with 10% heat-inactivated FBS.
All compounds were dissolved in DMSO at a concentration of either 100 mM or 50 mM prior to cell treatment. The cells were trypsinized and seeded at various cell concentrations depending on the cell type. The cells were grown for 24 h to 72 h, treated with compounds at concentrations ranging from 0.001 to 100 μM, and incubated for 48, 72, or 96 h in 100 or 200 μL media depending on the cell line used. Cells treated with 0.1% DMSO were used as a negative control, and cells treated with 1 μM phenyl arsine oxide (PAO) were used as a positive control. […]
(§2) Drug-resistant cell lines (i.e., glioma: Hs683, U373, U251, U87, T98G; lung cancer: A549, H2073; uterine carcinoma: MES-SA/Dx5) were complemented with drug-sensitive cell lines, H1993 lung cancer and MES-SA uterine cancer, which were used as controls. […] The GI50 values were calculated after 48-96 hours of treatment with the indicated compounds in replicate using the MTT growth assay.

The subject of assay [2] is H2073 cells. The experiment in a line: MTT growth inhibition, H2073 drug-resistant NSCLC. Conditions: for decrease in potency toward H2073 cells relative to H1993 cells: H2073 versus H1993; for GI50: Homo sapiens, NCI-H2073, MTT. It counts as cell-based, human. As to the method: NSCLC cell lines H1993 and H2073 were obtained from the Hamon Center for Therapeutic Oncology Research at UT Southwestern Medical Center and cultured in RPMI-1640 medium (Mediatech, VA, USA) supplemented with 5% heat-inactivated FBS (Mediatech™), 100 units/mL penicillin and 0.1 mg/mL streptomycin (Sigma™). All cell lines were cultured in T25 flasks, maintained, and grown at 37° C., 95% humidity, 5% CO2.
(§3) All compounds were dissolved in DMSO at a concentration of either 100 mM or 50 mM prior to cell treatment. The cells were trypsinized and seeded at various cell concentrations depending on the cell type. The cells were grown for 24 h to 72 h, treated with compounds at concentrations ranging from 0.001 to 100 μM, and incubated for 48, 72, or 96 h in 100 or 200 μL media depending on the cell line used. Cells treated with 0.1% DMSO were used as a negative control, and cells treated with 1 μM phenyl arsine oxide (PAO) were used as a positive control.
Spirodienone 4l was evaluated against patient-derived NSCLC cell line H1993 and its drug-resistant variant, H2073. The patient-derived NSCLC cell line […] was obtained from a regrown tumor at a primary site after a patient relapsed several months later.
(§4) Due to their high potencies, compounds 5l and 5g were used to determine the effects of the compounds on drug-resistant tumor cells. Drug-resistant cell lines (i.e., glioma: Hs683, U373, U251, U87, T98G; lung cancer: A549, H2073; uterine carcinoma: MES-SA/Dx5) were complemented with drug-sensitive cell lines, H1993 lung cancer and MES-SA uterine cancer, which were used as controls. Bulbispermine and paclitaxel were also used as controls. The GI50 values were calculated after 48-96 hours of treatment with the indicated compounds in replicate using the MTT growth assay.
Compound 5l was further tested to determine the effect of compounds of the invention on drug-resistant tumor cells. A patient-derived non-small cell lung cancer (NSCLC) line, H1993, and the drug-resistant variant of H1993, H2073, were used for testing. The H1993 cell line was obtained from a lymph node metastasis isolated from the patient prior to chemotherapy. The H2073 cell line was derived from a regrown tumor at the primary site after the patient had relapsed several months after administration of the chemotherapy regimen.

Assay [3] has as its system five GBM cell cultures (U373, T98G, U251, Hs683, U87). The assay can be described thus: MTT growth curves of five GBM cell cultures (populations resistant to proapoptotic agents). In kind it is cell-based, human. The source says:
Cells resistant to various pro-apoptotic stimuli often contain a sensitive population that quickly response to pro-apoptotic agents. However, a significant portion of the cells in a culture resist the effects of pro-apoptotic agents even at concentrations 100- or 1000-fold their GI50 values.

Assay [4] concerns H1993 cells. The experiment in a line: MTT growth inhibition, H1993 NSCLC. The following applies: Homo sapiens. In kind it is cell-based. How it is done:
as §3, §2

Assay [5] has as its system HeLa cells. The experiment in a line: MTT in vitro growth inhibition assay, HeLa. It counts as cell-based, human. Conditions: Homo sapiens, HeLa, two independent experiments. How it is done: as §1
(§5) Spirodienones 4a-m were subjected to in vitro growth inhibition 3-(4,5-dimethylthiazol-2-yl)-2,5-diphenyltetrazolium bromide (MTT) assays against two cell lines, human HeLa cervical and MCF-7 breast adenocarcinomas.
as §3
(§6) To determine the activities of the compounds of the invention toward cancer cells, cell lines treated with different compounds were subjected to an in vitro MTT growth assay using human cervical cancer (HeLa) and human adenocarcinoma (MCF-7) cell lines. The MTT growth assay is a colorimetric assay that measures the metabolic activity of cells via reduction of 3-(4,5-dimethylthiazol-2-yl)-2,5-diphenyltetrazolium bromide (MTT). The reduction of MTT occurs in metabolically-active cells and is characterized by a purple color, which can be quantified via spectrophotometry. A higher absorbance reading indicates a metabolically-active cell, while a low absorbance reading indicates low metabolic activity due to, for example, inhibition of cellular proliferation or cell death.
(§7) The values in TABLE 4 are the mean and standard deviation calculated from two independent experiments, which were performed in 4 replicates.

The subject of assay [6] is U373 glioblastoma cells. The assay can be described thus: MTT growth inhibition, U373 glioma. Conditions: Homo sapiens, U373 MG. In kind it is cell-based, human. How it is done: as §1, §3
Compound 4l was evaluated for in vitro growth inhibition against a panel of cancer cell lines, including U373, U251, U87, T98G, human GBM, and A549 NSCLC. […] Compound 4l was also evaluated for in vitro growth inhibition against the apoptosis-sensitive tumor model Hs683 anaplastic oligodendroglioma as a reference.
as §4

Assay [7] concerns MCF-7 cells. The assay can be described thus: MTT in vitro growth inhibition assay, MCF-7. In kind it is cell-based, human. The following applies: Homo sapiens, two independent experiments. As to the method:
as §1, §5, §3, §6, §7

SMILES strings stand for the structures. Read-outs that look alike come from different tables or passages of the source.

Regarding `O=C1C=CC2(C=C1)CCN(C(=O)C(F)(F)F)Cc1c2sc2ccccc12` [Compound 4l], the GI50 in assay [1] (Table 3, 48-96 h treatment, read-out: GI50 in vitro values, uterine sarcoma MES-SA) worked out at 5 µM; in assay [2] (Table 3, 48-96 h treatment, read-out: GI50 in vitro values, lung cancer H2073), 50 µM; in assay [4] (NCI-H1993, Table 3, 48-96 h treatment, read-out: GI50 in vitro values, lung cancer H1993), 12 µM; in assay [5] (48 h treatment, ± SD, read-out: cell viability GI50, HeLa), 10 µM; in assay [6] (Table 3, 48-96 h treatment, read-out: GI50 in vitro values, glioma U373), 7 µM; in assay [7] (MCF7, MCF-7, 48 h treatment, ± SD, read-out: cell viability GI50, MCF-7) it was 7 ± 1 µM. In addition, in assay [2], the “decrease in potency toward H2073 cells relative to H1993 cells” value is reported as “significantly less pronounced than that observed with paclitaxel”. Also, in assay [3] (5 GBM cell lines, FIG. 1, one experiment in six replicates), the “resistant populations in growth curves of GBM cell cultures” value is given as “absence of such resistant populations”.

With `O=C1C=C[C@]23CC[N@](Cc4c2sc2ccccc42)[C@H]3C1` [Compound 5l], the GI50 amounted to 2 µM in assay [1] (Table 5, 48-96 hours of treatment, read-out: GI50, Sarcoma MES-SA); 11 µM in assay [2] (Table 5, 48-96 hours of treatment, read-out: GI50, Lung Cancer H2073); 3 µM in assay [4] (NCI-H1993, Table 5, 48-96 hours of treatment, read-out: GI50, Lung Cancer H1993); 6.2 ± 1.13 µM in assay [5] (Table 4, 48-hour treatment, mean and standard deviation, read-out: HeLa Cell Viability GI50); 7 µM in assay [6] (Table 5, 48-96 hours of treatment, read-out: GI50, Glioma U373); 4.7 ± 0.1 µM in assay [7] (MCF7, Table 4, 48-hour treatment, mean and standard deviation, read-out: MCF-7 Cell Viability GI50). Moreover, the “decrease in potency toward H2073 cells relative to H1993 cells” value in assay [2] was “less drastic”. The “dose-dependent effects against cell populations resistant to proapoptotic agents” value in assay [3] (U373, T98G, U251, Hs683, U87, MTT, FIG. 8) is given as “dose-dependent effects”.
